Measurements: ChEMBL document CHEMBL5252615, “Synthesis, biological activity and mechanism of action of novel allosecurinine derivatives as potential antitumor agents” (Bioorg Med Chem, 2023)
Active and inactive are the calls of the source. The calls are words filed in the database; no cut-off is given here.

Tests used:
K562 [1] = experiment: Induction of apoptosis in human K562 cells assessed as decrease in expression level of Bcl-2 measured after 48 hrs by Western blotting analysis; type: functional, cell-based; details: dose 1-5 µM
U-937 [2] = experiment: Induction of apoptosis in human U-937 cells assessed as decrease in expression level of Bcl-2 measured after 48 hrs by Western blotting analysis; type: functional, cell-based; details: dose 1-5 µM
NB-4 [3] = experiment: Induction of apoptosis in human NB4 cells assessed as decrease in expression level of Bcl-2 measured after 48 hrs by Western blotting analysis; type: functional, cell-based; details: dose 1-5 µM
NB-4 [4] = experiment: Antitumor activity against human NB4 cells assessed as reduction in cell viability incubated for 72 hrs; type: functional, cell-based; details: NB-4, 72 h
HL-60 [5] = experiment: Antitumor activity against human HL-60 cells assessed as reduction in cell viability incubated for 72 hrs; type: functional, cell-based; details: HL-60, 72 h
KG-1 [6] = experiment: Antitumor activity against human KG-1 cells assessed as reduction in cell viability incubated for 72 hrs; type: functional, cell-based; details: KG-1, 72 h
SU-DHL-2 = experiment: Antitumor activity against human SUDHL2 cells assessed as reduction in cell viability incubated for 72 hrs; type: functional, cell-based; details: SU-DHL-2, 72 h
THP-1 [7] = experiment: Induction of differentiation of human THP1 cells assessed as increase in CD11b expression at 0.5 uM measured after 72 hrs by flow cytometric analysis; type: functional, cell-based
KG-1 [8] = experiment: Induction of differentiation of human KG-1 cells assessed as increase in CD11b expression at 0.5 uM measured after 72 hrs by flow cytometric analysis; type: functional, cell-based
NB-4 [9] = experiment: Induction of apoptosis in human NB4 cells assessed as late apoptotic cells at 2.5 uM after 48 hrs by Annexin-V-FITC/PI staining based flow cytometric analysis (reference value: 0.89%); type: functional
HL-60 [10] = experiment: Induction of apoptosis in human HL-60 cells assessed as late apoptotic cells at 2.5 uM after 48 hrs by Annexin-V-FITC/PI staining based flow cytometric analysis (reference value: 0.44%); type: functional
KG-1 [11] = experiment: Induction of apoptosis in human KG-1 cells assessed as early apoptotic cells at 2.5 uM after 48 hrs by Annexin-V-FITC/PI staining based flow cytometric analysis (reference value: 0.70%); type: functional
KG-1 [12] = experiment: Induction of apoptosis in human KG-1 cells assessed as late apoptotic cells at 2.5 uM after 48 hrs by Annexin-V-FITC/PI staining based flow cytometric analysis (reference value: 0.16%); type: functional
KG-1 [13] = experiment: Induction of apoptosis in human KG-1 cells assessed as necrotic cells at 2.5 uM after 48 hrs by Annexin-V-FITC/PI staining based flow cytometric analysis (reference value: 2.73%); type: functional
U-937 [14] = experiment: Induction of apoptosis in human U-937 cells assessed as viable cells at 2.5 uM after 48 hrs by Annexin-V-FITC/PI staining based flow cytometric analysis (reference value: 94.78%); type: functional; details: read-out: Activity
U-937 [15] = experiment: Induction of apoptosis in human U-937 cells assessed as early apoptotic cells at 2.5 uM after 48 hrs by Annexin-V-FITC/PI staining based flow cytometric analysis (reference value: 2.87%); type: functional
U-937 [16] = experiment: Induction of apoptosis in human U-937 cells assessed as necrotic cells at 2.5 uM after 48 hrs by Annexin-V-FITC/PI staining based flow cytometric analysis (reference value: 1.41%); type: functional
K562 [17] = experiment: Induction of apoptosis in human K562 cells assessed as viable cells at 2.5 uM after 48 hrs by Annexin-V-FITC/PI staining based flow cytometric analysis (reference value: 97.34%); type: functional; details: read-out: Activity
K562 [18] = experiment: Induction of apoptosis in human K562 cells assessed as late apoptotic cells at 2.5 uM after 48 hrs by Annexin-V-FITC/PI staining based flow cytometric analysis (reference value: 0.21%); type: functional
K562 [19] = experiment: Induction of apoptosis in human K562 cells assessed as necrotic cells at 2.5 uM after 48 hrs by Annexin-V-FITC/PI staining based flow cytometric analysis (reference value: 1.19%); type: functional
THP-1 [20] = experiment: Induction of apoptosis in human THP-1 cells assessed as viable cells at 2.5 uM after 48 hrs by Annexin-V-FITC/PI staining based flow cytometric analysis (reference value: 93.94%); type: functional; details: read-out: Activity
THP-1 [21] = experiment: Induction of apoptosis in human THP-1 cells assessed as late apoptotic cells at 2.5 uM after 48 hrs by Annexin-V-FITC/PI staining based flow cytometric analysis (reference value: 1.26%); type: functional
NB-4 [22] = experiment: Induction of apoptosis in human NB4 cells assessed as accumulation of cells at sub-G1 phase at 2.5 uM after 48 hrs by PI staining based flow cytometric analysis; type: functional, cell-based
HL-60 [23] = experiment: Induction of apoptosis in human HL-60 cells assessed as accumulation of cells at sub-G1 phase at 2.5 uM after 48 hrs by PI staining based flow cytometric analysis; type: functional, cell-based
KG-1 [24] = experiment: Induction of apoptosis in human KG-1 cells assessed as accumulation of cells at sub-G1 phase at 2.5 uM after 48 hrs by PI staining based flow cytometric analysis; type: functional, cell-based
U-937 [25] = experiment: Induction of apoptosis in human U-937 cells assessed as accumulation of cells at sub-G1 phase at 2.5 uM after 48 hrs by PI staining based flow cytometric analysis; type: functional, cell-based
K562 [26] = experiment: Induction of apoptosis in human K562 cells assessed as accumulation of cells at sub-G1 phase at 2.5 uM after 48 hrs by PI staining based flow cytometric analysis; type: functional, cell-based
THP-1 [27] = experiment: Induction of reactive oxygen species production in human THP-1 cells at 1 to 5 uM measured after 48 hrs by DCFH-DA staining based flow cytometric analysis; type: functional, cell-based; details: dose 1-5 µM
U-937 [28] = experiment: Induction of reactive oxygen species production in human U-937 cells at 1 to 5 uM measured after 48 hrs by DCF fluorescence analysis; type: functional, cell-based; details: dose 1-5 µM
KG-1 [29] = experiment: Induction of reactive oxygen species production in human KG-1 cells at 1 to 5 uM measured after 48 hrs by DCF fluorescence analysis; type: functional, cell-based; details: dose 1-5 µM
K562 [30] = experiment: Induction of apoptosis in human K562 cells assessed as decrease in expression level of XIAP measured at 1 to 5 uM after 48 hrs by Western blotting analysis; type: functional, cell-based; details: dose 1-5 µM
KG-1 [31] = experiment: Induction of apoptosis in human KG-1 cells assessed as decrease in expression level of YAP1 measured at 1 to 5 uM after 48 hrs by Western blotting analysis; type: functional, cell-based; details: dose 1-5 µM
NB-4 [32] = experiment: Induction of apoptosis in human NB4 cells assessed as decrease in expression level of caspase 3/9 measured at 1 to 5 uM after 48 hrs by Western blotting analysis; type: functional, cell-based; details: dose 1-5 µM
KG-1 [33] = experiment: Induction of apoptosis in human KG-1 cells assessed as decrease in expression level of caspase 3/9 measured at 1 to 5 uM after 48 hrs by Western blotting analysis; type: functional, cell-based; details: dose 1-5 µM
THP-1 [34] = experiment: Induction of apoptosis in human THP-1 cells assessed as decrease in expression level of PARP measured at 1 to 5 uM after 48 hrs by Western blotting analysis; type: functional, cell-based; details: dose 1-5 µM
U-937 [35] = experiment: Induction of apoptosis in human U-937 cells assessed as decrease in expression level of PARP measured at 1 to 5 uM after 48 hrs by Western blotting analysis; type: functional, cell-based; details: dose 1-5 µM
THP-1 [36] = experiment: Induction of apoptosis in human THP-1 cells assessed as increase in expression level of p21 measured at 1 to 5 uM after 48 hrs by Western blotting analysis; type: functional, cell-based; details: dose 1-5 µM

`O=C1O[C@@]23C[C@@H](C=CC2=C1C(O)c1ccc([N+](=O)[O-])cc1)N1CCCC[C@H]13` (some centres not stated) was tested, and the Activity (K562 [1]) was “Dose-Dependent Effect”, the Activity (U-937 [2]) was “Dose-Dependent Effect” and the Activity (NB-4 [3]) was “Dose-Dependent Effect”. It also gave an IC50 (NB-4 [4]) of 1880 nM, an IC50 (HL-60 [5]) of 3950 nM and an IC50 (KG-1 [6]) of 1060 nM. For the same compound, the IC50 (SU-DHL-2) was 8680 nM, the Activity (THP-1 [7]) was “Active” and the Activity (KG-1 [8]) was “Active”. It also gave an Activity (NB-4 [9]) of 50.58%, an Activity (HL-60 [10]) of 6.43% and an Activity (KG-1 [11]) of 0.33%. For the same compound, the Activity (KG-1 [12]) was 46.7%, the Activity (KG-1 [13]) was 7.79% and the viability at 2.5 µM (U-937 [14]) was 41.3%. The Activity (U-937 [15]) was 13.42%, the Activity (U-937 [16]) was 29.96% and the viability at 2.5 µM (K562 [17]) was 77.5%. For the same compound, the Activity (K562 [18]) was 12.56%, the Activity (K562 [19]) was 6.62% and the viability at 2.5 µM (THP-1 [20]) was 69.7%. The Activity (THP-1 [21]) was 11.77%, the Activity (NB-4 [22]) was “Active” and the Activity (HL-60 [23]) was “Active”. The Activity (KG-1 [24]) was “Active”, the Activity (U-937 [25]) was “Active” and the Activity (K562 [26]) was “Active”. The Activity (THP-1 [27]) was “Active”, the Activity (U-937 [28]) was “Active” and the Activity (KG-1 [29]) was “Active”. For the same compound, the Activity (K562 [30]) was “Active”, the Activity (KG-1 [31]) was “Active” and the Activity (NB-4 [32]) was “Active”. For the same compound, the Activity (KG-1 [33]) was “Active”, the Activity (THP-1 [34]) was “Active” and the Activity (U-937 [35]) was “Active”. The Activity (THP-1 [36]) was “Active”.
